Paper PMC9887672, “Predicting human cardiac QT alterations and pro-arrhythmic effects of compounds with a 3D beating heart-on-chip platform” (Toxicological Sciences, 2022)
“Also recorded” adds a separate entry of the source. Read-outs that look alike come from different tables or passages of the source.

Experiments:
[1] = cited from earlier work; for fETPC: free effective therapeutic plasma concentration, ref Nguyen et al. (2017), Yamazaki et al. (2018)
[2] = test system: uHeart 3D cardiac microtissues (h-iPSC-CMs and dermal fibroblasts in fibrin); test: Drug screening on uHeart: field potential recording (FPDcF, BP, AMP, arrhythmic events, beating cessation); details: for Concentration at which the described FPDcF change was seen: aspirine: increment just above LOW threshold, alfuzosin: slight shortening; for [%FPDcF] >LOW, drug concentration: concentration causing FPDcF change by 10% vs baseline; for Arrhythmic events: detected (Y) or not (N) in uHeart; for Effect on FPDcF (in words) / Effect on beating period BP (in words) / Effect on spike amplitude AMP (in words): incremental doses; for Effect on FPDcF (in words): change vs baseline; for TdP risk category proposed from uHeart score: score vs ratio effective concentration/fETPC, Figure 6D; for FPDcF alteration, direction, at [%FPDcF]>HIGH: threshold HIGH = 20% change vs baseline; for FPDcF alteration, direction, at [%FPDcF] >MID: threshold MID = 15% change vs baseline; for Arrhythmic events, lowest detected concentration: value in brackets in Table 2
Method: Human adult dermal fibroblasts were provided by Lonza Group Ltd. H-iPSC-CMs were thawed according to standard protocols and immediately used. Fibroblasts were expanded at confluency in DMEM (Gibco, 4.5 g l^−1 glucose) supplemented with 10% v/v FBS, 100 U ml^−1 penicillin, 100 μg ml^−1 streptomycin, and 10 mmol HEPES and used at passage 10–11. […] Subsequently, 2 μl of cell solution was inoculated into the central channel of each chamber of the uBeat Platform (provided by BiomimX Srl). The hydrogel was cross-linked in the incubator at 37°C for 8 min before manually adding the plating medium (FUJIFILM Cellular Dynamics Inc.) supplemented with 100 U ml^−1 penicillin, 100 μg ml^−1 streptomycin, and 2 mg ml^−1 of 6-Aminocaproic acid (ACA). […] This medium was used and changed every day for the following 6 days.
Field potential (FP) measurements (Figure 1B) were performed after 6 or 7 days of culture, when the model expresses a strong spontaneous and synchronous beating. […] An AgCl ground electrode was inserted in one of the 4 cell culture medium reservoirs. Cell culture medium was changed at least 1 h prior to perform the measurements. To execute the tests, uHeart was maintained in the incubator at 37°C with 5% CO2 and the electrodes were connected to an extracellular amplifier (Ext-02b, Npi Electronic GmbH, Germany) with a 1 × 10^4 gain and a bandpass filter between 0.3 Hz and 10 kHz. FPs were acquired with an electronic board (Analog Discovery 2, Digilent, Washington) at a rate of 2000 samples s^−1.
The cell culture medium was exchanged with fresh serum-free RPMI medium and after 1 h the baseline FP signal was recorded for at least 3 min. Subsequently, the lowest drug dose was administered to the microtissues and incubated at 37°C for 10–20 min before recording the corresponding FP for at least 3 min. Between each incremental dose, a 5-min washing was performed with serum-free RPMI medium.
Results of BP, FPD, and AMP assessed by the algorithm were compared against manual measurement. BP and FPD were additionally analyzed by applying an initial bandwidth filter to the signal (3rd order Butterworth filter, 0.67–100 Hz, zero phase), to further verify the quality of the estimates obtained. After the validation, the algorithm was used to analyze the FP signal recorded during the pharmacological campaign. Signals not correctly recognized by the software, as verified by visual inspection on the user interface, were manually analyzed.
For compounds not evoking responses, the maximum tested concentration respect to the fETPC was used.
A quality control was established to select the signals to be considered for the evaluation of electrophysiological parameters changes in response to increasing concentrations of compounds. […] This inclusion criteria ensured that the developed cardiac microtissues spontaneously beat in a consistent way and allowed to normalize the obtained FP signals with correction methods based on the beating frequency.

[3] = TdP risk category; ref Blinova et al., 2017; cited from earlier work
[4] = design: method as in Mair et al., 2022; details: long incubation, after 7 days; ref Mair et al., 2022; cited from earlier work
[5] = clinical highest blood drug concentration, ref Blinova et al. (2017), Kopljar et al. (2018), Voelker and Hammer (2012)

| SMILES | Cmax [1, 5] [nM] | fETPC [1] [µM] | [%FPDcF] >LOW, drug concentration [2] [µM] | Arrhythmic events ([2]; also in words) | Effect on FPDcF (in words) [2] | TdP risk category proposed from uHeart score [2] | FPDcF alteration, direction, at [%FPDcF]>HIGH [2] | FPDcF alteration, direction, at [%FPDcF] >MID [2] | Arrhythmic events, percentage of uHearts affected [2] [%] | Effect on beating period BP (in words) [2] | also measured |
| --- | --- | --- | --- | --- | --- | --- | --- | --- | --- | --- | --- |
| COc1cc2nc(N(C)CCCNC(=O)C3CCCO3)nc(N)c2cc1OC (stereo not shown) [Alfuzosin] | 15 | 0.01 | 0.3 | caused arrhythmic beating | did not showed a peculiar trend | low-risk | ↔ [drawing 30] | ↔ [drawing 29] |  |  | Concentration at which the described FPDcF change was seen [2]: 300 nM; FPDcF prolongation ([2]; at high concentration (ie,100 µM)): ~10%; Effect on FPDcF (in words) ([2]; listed as alfuzosin): shortening |
| CC(=O)Oc1ccccc1C(=O)O [Aspirin] | 24400 | 7.1 |  |  | did not change the FPDcF | low-risk | ↔ [drawing 33] | ↔ [drawing 32] |  |  | Concentration at which the described FPDcF change was seen [2]: 300000 nM; Effect on FPDcF (in words) ([2]; listed as aspirine): increment of the FPDcF just above the LOW threshold only at the highest concentration tested; FPDcF alteration, direction, at [%FPDcF] >LOW ([2]; threshold LOW = 10% change vs baseline): ↔ [drawing 31] |
| COc1cc(N)c(Cl)cc1C(=O)NC1CCN(CCCOc2ccc(F)cc2)CC1OC (stereo not shown) [Cisapride] |  |  |  | caused arrhythmic beats | slightly decrease in the FPDcF; also recorded: shortened the repolarization time at all considered thresholds; also recorded: did not revealed a FPDcF prolongation | high risk |  |  | 50 |  | Risk CiPa [3]: I; Stop, percentage of uHearts [2]: 25%; uHearts that ceased beating over uHearts tested [2]: 2 over 4; Stop (spontaneous beating cessation) ([2]; Y or N, also in words): interrupted the spontaneous beating of microtissues |
| CN(CCOc1ccc(NS(C)(=O)=O)cc1)CCc1ccc(NS(C)(=O)=O)cc1 [Dofetilide] |  |  |  | Arrhythmic events were detected | concentration-dependent prolongation of the FPDcF | high risk |  |  | 66 | slightly increased the BP | Stop, percentage of uHearts [2]: 33%; uHearts that ceased beating over uHearts tested [2]: 1 over 3; Effect on spike amplitude AMP (in words) [2]: incremental decrease in the AMP; Effect on FPDcF (in words) ([2]; listed as dofetilide): prolonged the FPDcF above the defined thresholds; also recorded: dose-related FPDcF prolongation |
| Cc1cccc(C)c1OCC(C)N (stereo not shown) [Mexiletine] |  | 2.5 | 50 |  |  | low-risk | ↔ [drawing 21] | ↔ [drawing 20] |  | did not show a trend in altering neither the FPDcF nor the BP; also recorded: without majorly affecting the FPDcF or the BP | Concentration at which AMP statistically decreased ([2]; already at medium concentration): 10000 nM; Effect on spike amplitude AMP (in words) [2]: statistically decreased in a concentration-dependent way; also recorded: dose-related statistically significant reduction of the FP amplitude |
| C=C[C@H]1C[N@@]2CC[C@H]1C[C@@H]2[C@@H](O)c1ccnc2ccc(OC)cc12 [Quinidine] | 3000 | 3 | 0.06 | Arrhythmic events were detected | prolonged the FPDcF above the defined thresholds; also recorded: dose-related FPDcF prolongation | high risk |  |  | 50 | slightly increased the BP | [%FPDcF] >MID, drug concentration ([2]; concentration causing FPDcF change by 15% vs baseline): 1 µM; [%FPDcF]>HIGH, drug concentration ([2]; concentration causing FPDcF change by 20% vs baseline): 10 µM; Arrhythmic events, lowest detected concentration [2]: 0.1 µM |
| COc1ccccc1OCC(O)CN1CCN(CC(=O)Nc2c(C)cccc2C)CC1 (stereo not shown) [Ranolazine] |  |  |  | generated arrhythmia; also recorded: caused arrhythmic beating | statistically enhanced the repolarization time; also recorded: prolonged the FPDcF; also recorded: dose-related FPDcF prolongation | high-risk |  |  | 20 | increase the BP | Effect on beating period BP (in words) ([2]; listed as ranolazine): rose the BP |
| CC(C)NCC(O)c1ccc(NS(C)(=O)=O)cc1 (stereo not shown) [Sotalol] |  |  |  | did not elicit any arrhythmia; also recorded: not found to provoke arrhythmic events | prolonged the FPDcF above the defined thresholds; also recorded: dose-related FPDcF prolongation | high risk |  |  |  | slightly increased the BP; also recorded: drug dose dependent increase of the BP |  |
| CC(C)(C)c1ccc(C(O)CCCN2CCC(C(O)(c3ccccc3)c3ccccc3)CC2)cc1 (stereo not shown) [Terfenadine] | 0.29 | 0.00029 |  | arrhythmic events | statistically prolonged the FPDcF at high dosages; also recorded: prolongation of the FPDcF | high risk |  |  | 60 | without affecting the BP | Reduction of compound by absorption in PDMS [4]: about 20%; fETPC in the presence of metabolic inhibition ([1]; patients, cytochrome P450 inhibitor, ref Redfern et al., 2003): about 4 nM; Cmax ([1]; read-out: Cmax or fETPC, clinical value of patients, ref Ando et al., 2017): 0.29 nM; Concentration at which FPDcF was statistically prolonged ([2]; Kruskal-Wallis with Dunn's test): 300 nM; Concentration found effective in uHeart ([2]; as quoted in Discussion): 100000 nM; Arrhythmic events, lowest detected concentration [2]: 0.001 µM |
